# Literature values in patent US7041008B2, “Golf ball with sulfur cured inner component” (priority 1993, dated 2006).
row,Compound,Acute oral LD50
1,"2,2′-bis(t-butylperoxy)-di-iso-propylbenzene",">23,000 mg/kg"
2,"CCCCOC(=O)CCC(C)(OOC(C)(C)C)OOC(C)(C)C [n-butyl 4,4-bis(t-butyl-peroxy) valerate]","5,000 mg/kg"
3,"CC1CC(C)(C)CC(OOC(C)(C)C)(OOC(C)(C)C)C1 (stereo not drawn) [1,1-bis(t-butylperoxy)-3,3,5-trimethyl cyclohexane]",">13,000 mg/kg"
4,"O=C1CCCCCN1SSN1CCCCCC1=O [N,N′-caprolactum disulfide]","3,620 mg/kg"
5,CC(C)(OOC(C)(C)c1ccccc1)c1ccccc1 [dicumyl peroxide],"4,100 mg/kg"
6,"CC(C)(C)OOC(C)(C)CCC(C)(C)OOC(C)(C)C [2,5-dimethyl-2,5-di(t-butylperoxy) hexane]",">32,000 mg/kg"
7,"C1CN(SSN2CCOCC2)CCO1 [4,4″-dithiodimorpholine]","5,600 mg/kg"
8,O=C(OOC(=O)c1ccccc1)c1ccccc1 [benzoyl peroxide],">5,000 mg/kg"
9,CC(C)(C)OOC(=O)c1ccccc1 [t-butyl perbenzoate],">3,600 mg/kg"
